T1: L-lysine α-oxidase (Trichoderma viride, UniProt A0A0G4DCU0)
T1 construct: mature processed form
T1 sequence (A0A0G4DCU0 77-617): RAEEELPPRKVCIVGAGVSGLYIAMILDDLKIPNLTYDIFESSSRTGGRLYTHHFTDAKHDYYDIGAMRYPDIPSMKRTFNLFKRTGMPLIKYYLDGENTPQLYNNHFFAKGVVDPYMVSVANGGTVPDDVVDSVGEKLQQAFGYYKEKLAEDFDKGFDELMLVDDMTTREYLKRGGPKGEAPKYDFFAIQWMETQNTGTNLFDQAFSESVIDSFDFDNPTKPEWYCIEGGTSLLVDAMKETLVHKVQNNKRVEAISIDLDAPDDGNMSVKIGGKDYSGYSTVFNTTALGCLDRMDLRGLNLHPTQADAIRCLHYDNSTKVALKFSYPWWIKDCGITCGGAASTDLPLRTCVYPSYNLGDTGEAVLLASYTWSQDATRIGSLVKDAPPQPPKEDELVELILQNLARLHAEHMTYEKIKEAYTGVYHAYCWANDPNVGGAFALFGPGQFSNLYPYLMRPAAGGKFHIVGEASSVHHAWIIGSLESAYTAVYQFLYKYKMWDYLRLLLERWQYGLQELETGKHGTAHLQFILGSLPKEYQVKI

B1: L-lysine α-oxidase (Trichoderma viride) (protein)
chain: T1 sequence (A0A0G4DCU0 77-617)
notes: mature processed form

These molecules were tested against T1, L-lysine α-oxidase (assay: Substrate specificity, relative enzyme activity by oxygen-electrode method). Conditions: purified enzyme.
Assay type: biochemical
Method: A variety of substrates listed in the following table were subjected to the action of the purified enzyme of the present invention, and the relative enzyme activities thereof were determined according to the oxygen-electrode method.
The activity of the present enzyme was measured in accordance with Soda's method (Analytical Biochemistry Vol. 25, p. 228, 1968) in the following manner. A reaction mixture consisting of 0.7 ml of 0.1 M potassium phosphate buffer (pH 8.0), 0.1 ml of catalase (750 U/ml), 0.1 ml of 0.1 M L-lysine solution and 0.1 ml of the present enzyme solution was incubated at 37° C. for 20 minutes with gentle shaking. After the incubation the reaction was terminated by the addition of 0.1 ml of 25% trichloroacetic acid. To the resulting reaction mixture were added 1.9 ml of 1 M acetate buffer (pH 5.0) and 0.8 ml of 0.1% 3-methyl-2-benzothiazolone hydrazone hydrochloride solution. The mixture was further incubated at 30° C. for 30 minutes and then allowed to cool to room temperature, after which measurement of optical density at 318 nm was carried out. The formed α-keto-ε -aminocaproic acid thus formed was determined from the resulting calibration curve. One unit of the enzyme was defined as the quantity of the enzyme catalyzing the formation of 1 μmol of α-keto-ε-aminocaproic acid at 37° C. per minute. The relative activity of the enzyme was also assayed by manometric and polarographic determination of the oxygen consumption.

Molecule	Activity of the enzyme to the amino acid (in words)
N=C(N)NCCC[C@H](N)C(=O)O [L-Arginine]	some activities
N[C@@H](Cc1c[nH]cn1)C(=O)O [L-Histidine]	some activities
NCCC[C@H](N)C(=O)O [L-Ornithine]	some activities
N[C@@H](Cc1ccccc1)C(=O)O [L-Phenylalanine]	some activities

Same assay, conditions: substrate 10 mM, purified enzyme, L-Lysine = 100

Molecule	Relative activity (%)
NCCCCCC(N)C(=O)O (racemic) [D,L-Homolysine]	31.1
NCCC(N)C(=O)O (centres unmarked) [2,4-Diaminobutyric acid]	< 0.5
NCCCCCN [Cadaverine]	< 0.5
NCCCC[C@@H](N)C(=O)O [D-Lysine]	< 0.5
NC(=O)NCCCC[C@H](N)C(=O)O [Homocitrulline]	< 0.5
C[C@H](N)C(=O)O [L-Alanine]	< 0.5
N=C(N)NCCC[C@H](N)C(=O)O [L-Arginine]	6.1
NC(=O)C[C@H](N)C(=O)O [L-Asparagine]	< 0.5
N[C@@H](CC(=O)O)C(=O)O [L-Aspartic acid]	< 0.5
NC(=O)NCCC[C@H](N)C(=O)O [L-Citrulline]	< 0.5
N[C@@H](CS)C(=O)O [L-Cysteine]	< 0.5
N[C@@H](CCC(=O)O)C(=O)O [L-Glutamic acid]	< 0.5
NC(=O)CC[C@H](N)C(=O)O [L-Glutamine]	< 0.5
NCC(=O)O [L-Glycine]	< 0.5
N[C@@H](Cc1c[nH]cn1)C(=O)O [L-Histidine]	3.8
O=C(O)[C@@H]1C[C@@H](O)CN1 [L-Hydroxyproline]	< 0.5
CC[C@H](C)[C@H](N)C(=O)O [L-Isoleucine]	< 0.5
CC(C)C[C@H](N)C(=O)O [L-Leucine]	< 0.5
CCOC(=O)[C@@H](N)CCCCN [L-Lysine ethyl ester]	83.3

Molecule	Relative activity (%)
NCCCC[C@H](N)C(=O)NO [L-Lysine hydroxamate]	62.1
NCCCC[C@H](N)C(=O)O [L-Lysine]	100.0
CSCC[C@H](N)C(=O)O [L-Methionine]	< 0.5
NCCC[C@H](N)C(=O)O [L-Ornithine]	18.2
N[C@@H](Cc1ccccc1)C(=O)O [L-Phenylalanine]	8.3
O=C(O)[C@@H]1CCCN1 [L-Proline]	< 0.5
N[C@@H](CO)C(=O)O [L-Serine]	< 0.5
C[C@@H](O)[C@H](N)C(=O)O [L-Threonine]	< 0.5
N[C@@H](Cc1c[nH]c2ccccc12)C(=O)O [L-Tryptophan]	< 0.5
CC(C)[C@H](N)C(=O)O [L-Valine]	< 0.5
NCCCCN [Putrescine]	< 0.5
N[C@@H](CSCCc1ccncc1)C(=O)O [S-(β-4-Pyridylethyl)-L-cysteine]	2.7
NCCSC[C@H](N)C(=O)O [S-(β-Aminoethyl)-L-cysteine]	9.8
CC(N)CSC[C@H](N)C(=O)O (stereo partly drawn) [S-(β-Aminopropyl-L-cysteine]	34.8
NCC(N)C(=O)O (stereo not drawn) [α,β-Diaminopropionic acid]	< 0.5
NCCCCC(=O)O [δ-Aminovareric acid]	< 0.5
NCC(O)CC[C@H](N)C(=O)O (some centres unmarked) [δ-Hydroxy-lysine]	37.1
NCCCCCC(=O)O [ε-Aminocaproic acid]	< 0.5
CC(=O)NCCCC[C@H](N)C(=O)O [ε-N-Acetyl-L-lysine]	< 0.5

What follows are molecules tested against T1, L-lysine α-oxidase (assay: Enzyme activity in the presence of metallic ions and additives (inhibition, activation, stabilization)). Conditions: not given.
Assay type: biochemical
Method: The enzyme activity was measured in the presence of various metallic ions and various additives. The activator has not been found. The enzyme was stabilized by sodium chloride, potassium chloride, phosphates and the like.

Molecule	Relative activity (%) in presence of inhibitors [%]	Stabilization of the enzyme (in words)
O=C(O)CN(CCN(CC(=O)O)CC(=O)O)CC(=O)O [EDTA, Ethylenediaminetetraacetic acid]	93.8	–
N[C@@H](CCC(=O)N[C@@H](CS)C(=O)NCC(=O)O)C(=O)O [Glutathione]	103.5	–
[Cl-].[K+] [potassium chloride]	–	stabilized
[Cl-].[Na+] [sodium chloride]	–	stabilized
phosphates	–	stabilized

Same assay, conditions: enzyme activity measured in presence of the additive

Molecule	Effect on enzyme activity (in words)
[Cu+2] [Cu]	inhibited
[Cl][Hg][Cl] [Mercuric chloride]	inhibited
O=C(O)c1cc[c]([Hg][Cl])cc1 [PCMB, para-Chloromercuribenzoic acid]	inhibited

Same assay, conditions: inhibitor concentration not given

Molecule	Relative activity (%) in presence of inhibitors [%]
N[C@@H](CS)C(=O)O [Cysteine]	100.3
[Cl][Hg][Cl] [Mercuric chloride]	19.2
CCN1C(=O)C=CC1=O [N-Ethylmaleimide]	108.7
O=C(O)c1cc[c]([Hg][Cl])cc1 [PCMB, para-Chloromercuribenzoic acid]	42.9
O=S(=O)(O)c1cc(O)c(O)c(S(=O)(=O)O)c1 [Tiron]	96.5

Same assay, conditions: metallic ions 1mM

Molecule	Relative activity (%) in presence of metallic ions [%]
[Ba+2] [Ba]	100.0
[Ca+2] [Ca]	102.5
[Co+2] [Co]	91.6
[Cu+2] [Cu]	78.5
[K+] [K]	100.0
[Li+] [Li]	98.4
[Mg+2] [Mg]	99.6
[Mn+2] [Mn]	97.1
[Zn+2] [Zn]	92.7

These molecules were tested on L5178 Y mouse leukemic cells (assay: not given). Conditions: L5178Y cells, 10^5 cells/ml, 37° C., 48 hours.
Method: In this experiment, the antitumor activity in vitro was determined by measuring the proliferation-inhibition activity against the cultured L5178 Y mouse leukemic cells. More specifically, 0.1 ml of the sample diluted with a phosphate-buffered saline (PBS) was added to 0.9 ml of the cultured L5178Y cell suspension (10^5 cells/ml) with the logarithmic growth phase. The mixture was incubated, at 37° C. for 48 hours in a carbon dioxide incubator, and then the number of the cells was measured by means of a microcell counter.

Molecule	Concentration giving complete inhibition of proliferation [mU/ml]
L-lysine α-oxidase	3.3

These molecules were tested on NCCC[C@H](N)C(=O)O (assay: purified protein, by the assay type). Conditions: other: purified enzyme of Example 1.

Molecule	Km [µM]
B1	440

The molecules below were run on NCCCC[C@H](N)C(=O)O (assay: Km values of the enzyme for amino acids). Conditions: other: purified enzyme of Example 1.
Assay type: biochemical, Trichoderma viride

Molecule	Km [µM]
B1	40

Each molecule was assayed on N[C@@H](Cc1ccccc1)C(=O)O (assay: Km values of the enzyme for amino acids). Conditions: other: purified enzyme of Example 1.
Assay type: biochemical, Trichoderma viride

Molecule	Km [M]
B1	0.014
